Measurements published in patent US9656963B2 (BRISTOL-MYERS SQUIBB COMPANY, priority 2012, dated 2017).

What follows are compounds tested against T1, hGPR40 (Homo sapiens, UniProt O14842) (assay: FDSS-Based Intracellular Calcium Assay). Settings: cells expressing GPR40, intracellular Ca2+ response.
T1 construct: 3x FLAG; expressed in transfected cells
Assay type: cell-based
Outline: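 Flag-tagged GPR40-expressing cells plated overnight in serum-free, phenol red-free DMEM. Compounds added from DMSO stocks, diluted in assay buffer and added as 3x solution. Intracellular Ca^2+ flux read by fluorescence on an FDSS reader.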

T1 sequence (O14842 whole entry): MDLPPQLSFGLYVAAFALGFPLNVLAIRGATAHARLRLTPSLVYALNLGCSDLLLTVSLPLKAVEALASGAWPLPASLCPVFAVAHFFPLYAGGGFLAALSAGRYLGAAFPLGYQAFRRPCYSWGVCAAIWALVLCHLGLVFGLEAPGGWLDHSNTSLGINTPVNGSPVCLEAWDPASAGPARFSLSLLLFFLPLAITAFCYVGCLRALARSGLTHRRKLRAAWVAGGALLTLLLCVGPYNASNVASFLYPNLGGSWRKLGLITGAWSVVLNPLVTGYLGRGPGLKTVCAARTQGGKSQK

In order of rising EC50:
1. COc1cccc(-c2ccc(Cc3ccc(N4N=C(C(F)(F)F)[C@@H](C)[C@@H]4CC(=O)O)cc3)c(C)c2)c1 [Example 73]  0.037 µM
2. COc1ccc(F)c(-c2ccc(Cc3ccc(N4N=C(C#N)CC4CC(=O)O)cc3)c(C)c2)c1 (single isomer, unassigned) [Example 34, Isomer 1, 2-(3-cyano-1-(4-((2′-fluoro-5′-methoxy-3-methylbiphenyl-4-yl)methyl)phenyl)-4,5-dihydro-1H-pyrazol-5-yl)acetic acid]  0.15 µM
3. COc1cc(-c2ccc(Cc3ccc(N4N=C(C(F)(F)F)CC4CC(=O)O)cc3)c(C)c2)c(F)cn1 (single isomer, unassigned) [Example 27, Isomer 2, 2-(1-(4-(4-(5-fluoro-2-methoxypyridin-4-yl)-2-methylbenzyl)phenyl)-3-(trifluoromethyl)-4,5-dihydro-1H-pyrazol-5-yl)acetic acid]  0.15 µM
4. COc1cc(-c2ccc(Cc3ccc(N4N=C(C(F)(F)F)[C@@H](C)[C@@H]4CC(=O)O)cc3)c(C)c2)c(F)cn1 [Example 74, 2-((4S,5 S)-1-(4-(4-(5-fluoro-2-methoxypyridin-4-yl)-2-methylbenzyl)phenyl)-4-methyl-3-(trifluoromethyl)-4,5-dihydro-1H-pyrazol-5-yl)acetic acid]  0.21 µM
5. COc1ccc(F)c(-c2ccc(Cc3ccc(N4N=C(C(F)(F)F)CC4CC(=O)O)cc3)cc2C)c1 (single isomer, unassigned) [Example 22, Isomer 2, 2-(1-(4-((2′-fluoro-5′-methoxy-2-methylbiphenyl-4-yl)methyl)phenyl)-3-(trifluoromethyl)-4,5-dihydro-1H-pyrazol-5-yl)acetic acid]  0.35 µM
6. COc1cc(-c2ccc(Oc3ccc(N4N=C(C(F)(F)F)CC4CC(=O)O)cc3)c(C)c2)c(F)cn1 (single isomer, unassigned) [Example 15, Isomer 2, 2-(1-(4-(4-(5-fluoro-2-methoxypyridin-4-yl)-2-methylphenoxy)phenyl)-3-(trifluoromethyl)-4,5-dihydro-1H-pyrazol-5-yl)acetic acid]  0.53 µM
7. Cc1cc(Cc2ccc(N3N=C(C(F)(F)F)CC3CC(=O)O)cc2)ccc1-c1cc(C(F)(F)F)ccc1F (racemic) [Example 24, 2-(1-(4-((2′-fluoro-2-methyl-5′-(trifluoromethyl)biphenyl-4-yl)methyl)phenyl)-3-(trifluoromethyl)-4,5-dihydro-1H-pyrazol-5-yl)acetic acid]  0.57 µM
8. COc1ccc(F)c(-c2ccc(Oc3ccc(N4N=C(C(F)(F)F)CC4CC(=O)O)cc3)cc2C)c1 (single isomer, unassigned) [Example 16, Isomer 1, 2-(1-(4-(2′-fluoro-5′-methoxy-2-methylbiphenyl-4-yloxy)phenyl)-3-(trifluoromethyl)-4,5-dihydro-1H-pyrazol-5-yl)acetic acid]  0.67 µM
9. O=C(O)CC1CC(C(F)(F)F)=NN1c1ccc(OCc2ccc(Cl)cc2Cl)cc1 (racemic) [Example 2, 2-(1-(4-(2,4-dichlorobenzyloxy)phenyl)-3-(trifluoromethyl)-4,5-dihydro-1H-pyrazol-5-yl)acetic acid]  0.8 µM
10. COc1ccc(F)c(-c2ccc(Cc3ccc(N4N=C(c5ccccn5)C(C)C4CC(=O)O)cc3)c(C)c2)c1 (single isomer, unassigned) [Example 62, isomer 1, 2-(1-(4-((2′-fluoro-5′-methoxy-3-methylbiphenyl-4-yl)methyl)phenyl)-4-methyl-3-(pyridin-2-yl)-4,5-dihydro-1H-pyrazol-5-yl)acetic acid]  1.6 µM
11. Cc1ccccc1Oc1ccc(N2N=C(C(F)(F)F)CC2CC(=O)O)cc1 (single isomer, unassigned) [Example 11, Isomer 2, 2-(1-(4-(o-tolyloxy)phenyl)-3-(trifluoromethyl)-4,5-dihydro-1H-pyrazol-5-yl)acetic acid]  1.85 µM
12. O=C(O)CC1CC(C(F)(F)F)=NN1c1ccc(OCc2ccccc2)cc1 (racemic) [Example 1, 2-(1-(4-(benzyloxy)phenyl)-3-(trifluoromethyl)-4,5-dihydro-1H-pyrazol-5-yl)acetic acid]  1.96 µM
13. COc1ccc(F)c(-c2ccc(Cc3ccc(N4N=C(c5cc(C)on5)[C@@H](C)[C@@H]4CC(=O)O)cc3)c(C)c2)c1 (single isomer, unassigned) [Example 69, isomer 2]  2.56 µM
14. Cc1ccccc1Oc1ccc(N2N=C(c3nnnn3C)CC2CC(=O)O)cc1 (racemic) [Example 7, 2-(3-(1-methyl-1H-tetrazol-5-yl)-1-(4-(o-tolyloxy)phenyl)-4,5-dihydro-1H-pyrazol-5-yl)acetic acid]  3.2 µM
15. COc1ncccc1-c1ccc(Cc2ccc(N3N=C(C(F)(F)F)[C@@H](C)[C@@H]3CC(=O)O)cc2)c(C)c1 [Example 77, 2-((4S,5S)-1-(4-(4-(2-methoxypyridin-3-yl)-2-methylbenzyl)phenyl)-4-methyl-3-(trifluoromethyl)-4,5-dihydro-1H-pyrazol-5-yl)acetic acid]  5.37 µM
16. COc1ccc(F)c(-c2ccc(Cc3ccc(N4N=C(C(F)(F)F)C(c5ccccc5)C4CC(=O)O)cc3)c(C)c2)c1 (single isomer, unassigned) [Example 47, Isomer 2, 2-(1-(4-((2′-fluoro-5′-methoxy-3-methylbiphenyl-4-yl)methyl)phenyl)-4-phenyl-3-(trifluoromethyl)-4,5-dihydro-1H-pyrazol-5-yl)acetic acid]  5.93 µM
17. COc1ccc(F)c(-c2ccc(Cc3ccc(N4N=C(c5ccccc5)C(C)C4CC(=O)O)cc3)c(C)c2)c1 (single isomer, unassigned) [Example 59, Isomer 1, 2-(1-(4-((2′-fluoro-5′-methoxy-3-methyl-[1,1′-biphenyl]-4-yl)methyl)phenyl)-4-methyl-3-phenyl-4,5-dihydro-1H-pyrazol-5-yl)acetic acid]  6.47 µM
18. C[C@@H]1C(C(F)(F)F)=NN(c2ccc(CCCc3cccc(F)c3)cc2)[C@H]1CC(=O)O [Example 72, 2-((4S,5S)-1-(4-(3-(3-fluorophenyl)propyl)phenyl)-4-methyl-3-(trifluoromethyl)-4,5-dihydro-1H-pyrazol-5-yl)acetic acid]  7.02 µM
19. COc1ccc(F)c(-c2ccc(Cc3ccc(N4N=C(c5cccc(Cl)c5)[C@@H](C)[C@@H]4CC(=O)O)cc3)c(C)c2)c1 (single isomer, unassigned) [Example 68, isomer 2]  8.46 µM
